Data published in ChEMBL document CHEMBL2034821, “Synthesis, hypoglycemic and hypolipidemic activities of novel thiazolidinedione derivatives containing thiazole/triazole/oxadiazole ring” (Eur J Med Chem, 2012).

Experiments:
[1] = system: Rattus norvegicus; test: Hypoglycemic activity in alloxan-induced diabetic Wistar rat model assessed as reduction in plasma glucose level at 100 mg/kg, po for 15 days measured on day 15; type: functional; set-up: scale not given: the % may be the effect or the level left
[2] = system: Rattus norvegicus; test: Hypolipidemic activity in alloxan-induced diabetic Wistar rat model assessed as reduction in triglyceride level at 30 mg/kg, po for 15 days measured on day 15; type: functional; set-up: scale not given: the % may be the effect or the level left
[3] = system: Rattus norvegicus; test: Hypoglycemic activity in alloxan-induced diabetic Wistar rat model assessed as reduction in plasma glucose level at 10 mg/kg, po for 15 days measured on day 15; type: functional; set-up: scale not given: the % may be the effect or the level left
[4] = system: Rattus norvegicus; test: Hypolipidemic activity in alloxan-induced diabetic Wistar rat model assessed as reduction in triglyceride level at 3 mg/kg, po for 15 days measured on day 15; type: functional; set-up: scale not given: the % may be the effect or the level left
[5] = system: Rattus norvegicus; test: Hypoglycemic activity in alloxan-induced diabetic Wistar rat model assessed as reduction in plasma glucose level at 30 mg/kg, po for 15 days measured on day 15; type: functional; set-up: scale not given: the % may be the effect or the level left
[6] = system: Rattus norvegicus; test: Hypoglycemic activity in alloxan-induced diabetic Wistar rat model assessed as reduction in plasma glucose level at 3 mg/kg, po for 15 days measured on day 15; type: functional; set-up: scale not given: the % may be the effect or the level left
[7] = system: Rattus norvegicus; test: Hypolipidemic activity in alloxan-induced diabetic Wistar rat model assessed as reduction in triglyceride level at 100 mg/kg, po for 15 days measured on day 15; type: functional; set-up: scale not given: the % may be the effect or the level left
[8] = system: Rattus norvegicus; test: Hypolipidemic activity in alloxan-induced diabetic Wistar rat model assessed as reduction in triglyceride level at 10 mg/kg, po for 15 days measured on day 15; type: functional; set-up: scale not given: the % may be the effect or the level left
[9] = system: Rattus norvegicus; test: Toxicity in Wistar rat at 3 to 100 mg/kg, po for 15 days; type: organism-based; set-up: dose 3-100 mg/kg, route oral; settings: in vivo, 360 h

Structure (SMILES)	Activity [1]	Activity [2]	Activity [3]	Activity [4]	Activity [5]	Activity [6]	Activity [7]	Activity [8]	Activity [9]
O=C1NC(=O)/C(=C/c2ccc(OCCSc3nnc(-c4ccccc4)o3)cc2)S1	20.08%	24.05%	14.64%	21.56%	16.13%	11.62%	33.12%	22.18%	Non-toxic
O=C1NC(=O)/C(=C/c2ccc(OCCSc3nnc(-c4ccc([N+](=O)[O-])cc4)[nH]3)cc2)S1	18.04%	18.56%	13.85%	14.12%	16.02%	11.92%	22.08%	15.32%	Non-toxic
CCc1ccc(CCOc2ccc(CC3SC(=O)NC3=O)cc2)nc1 (centres undefined) [PIOGLITAZONE]	45.89%	64.59%	35.25%	41.6%	40.96%	47.02%	75.43%	47.25%	–
O=C1NC(=O)/C(=C/c2ccc(OCc3csc(-c4ccccc4)n3)cc2)S1	29.73%	40.26%	20.36%	25.24%	22.64%	17.75%	53.96%	21.69%	Non-toxic
Cc1ccc(-c2nnc(SCCOc3ccc(/C=C4\SC(=O)NC4=O)cc3)[nH]2)cc1	29.73%	40.26%	20.36%	25.24%	22.64%	16.87%	53.96%	21.69%	Non-toxic
O=C1NC(=O)/C(=C/c2ccc(OCCSc3nnc(-c4ccncc4)o3)cc2)S1	43.42%	58.48%	32.62%	40.15%	40%	23.46%	69.72%	42.17%	Non-toxic
O=C1NC(=O)/C(=C/c2ccc(OCCSc3nnc(-c4ccccc4[N+](=O)[O-])[nH]3)cc2)S1	26.84%	38.64%	15.28%	19.84%	20.14%	14.58%	49.12%	20.91%	Non-toxic
O=C1NC(=O)/C(=C/c2ccc(OCCSc3nnc(-c4ccc(Br)cc4)[nH]3)cc2)S1	28.51%	39.45%	20.43%	28.35%	19.52%	13.15%	45.68%	26.87%	Non-toxic
O=C1NC(=O)/C(=C/c2ccc(OCCSc3nnc(-c4ccccc4)[nH]3)cc2)S1	22.87%	26.4%	10.64%	18.62%	14.73%	10.42%	38.92%	19.2%	Non-toxic
O=C1NC(=O)/C(=C/c2ccc(OCCSc3nnc(Cc4ccccc4)o3)cc2)S1	23.08%	28.02%	16.82%	18.52%	19.08%	14.23%	34.56%	20.54%	Non-toxic
COc1ccc(-c2nnc(SCCOc3ccc(/C=C4\SC(=O)NC4=O)cc3)[nH]2)cc1	43.42%	59.46%	33.62%	43.14%	40.04%	41.28%	71.24%	42.63%	Non-toxic
O=C1NC(=O)/C(=C/c2ccc(OCCSc3nnc(-c4ccc(Cl)cc4)[nH]3)cc2)S1	28.85%	32.92%	19.63%	23.85%	23.68%	16.04%	41.56%	24.56%	Non-toxic
O=C1NC(=O)/C(=C/c2ccc(OCCSc3nnc(-c4cccnc4)o3)cc2)S1	50.09%	60.78%	33.16%	40.66%	39.34%	24.35%	72.32%	45.1%	Non-toxic
Cc1nc(COc2ccc(/C=C3\SC(=O)NC3=O)cc2)cs1	22.87%	26.4%	10.64%	18.62%	14.73%	10.42%	38.92%	19.2%	Non-toxic
O=C1NC(=O)/C(=C/c2ccc(OCCSc3nnc(Cc4ccccc4)[nH]3)cc2)S1	34.38%	38.25%	19.36%	22.45%	28.54%	18.28%	41.87%	22.81%	Non-toxic
